Data as given in patent US20060036073A1, “Neurotrophic and neuroprotective peptides” (priority 2002, published 2006).
Where a SMILES comes first, the peptide text is derived from it. Where no end group is shown, it is not given here.

Columns and labels:
[1] = tested on: cortical neurons that are obtained from chicken embryos; assay: Summary of the screening over all neuroprotection assays; assay type: cell-based; conditions: for Active in: (number of assays): Table 2 summary
Experimental: Since the targets of the therapy with the peptides presented according to the invention are various neurodegenerative diseases, different model systems for detecting the biological activity of the peptides according to the invention in the case of neurodegenerative diseases were used. Later, the individually used model systems and the results thus achieved are described. […] That is to say, the implementation of the tests was carried out on different days with different cell preparations and by different individuals. For some peptides, two numbers were issued (#1=#23 or #6=#35 or #7=#43), but the results with these peptides were only shown once. […] With some other substances, there were problems in the production, and thus only small amounts were available, and it was not possible to test the substances in all the assays (#12, 14, 17, 35 and #48). […] As could be seen from the figures, the standard deviations, i.e., the fluctuations between the independent experiments, are to some extent quite large. These fluctuations can be attributed to stability problems. These peptides are the peptides that are preferred within the scope of the invention.

[2] = tested on: cortical neurons that are obtained from chicken embryos; assay: Chronic disruption of the calcium metabolism by ionomycin, neuron viability by MTT; assay type: cell-based; conditions: ionomycin 10 μM, 24 hours
Experimental: It is common to these biological test systems that cortical neurons that are obtained from chicken embryos are cultivated in culture plates for eight days and then are exposed to a specific noxa (Pettmann et al., Nature 281 (5730): 378-80 [1979]).
To this end, a one-day-old, fertilized hen's egg is incubated for eight days at +12 +/− 0.1° C. and 80 +/− 5% atmospheric humidity. On the embryonal day 0, the eggs are transferred into an incubator and incubated up to the embryonal day 8 at 38 +/− 0.5° C. and 55 +/− 5%. After the brains are removed, the cortices are isolated, homogenized, and neurons are taken into primary culture (culture conditions: Dulbecco's Modified Eagle's Medium, 20% v/v fetal calf serum, 0.01% gentamicin, 1 g/l of glucose, 2 mmol of L-glutamine, +37° C., 5% CO2 and 95% atmospheric humidity). […] After the end of the specified stress period, the proportion of the still living neurons is determined with a metabolic colorimetric assay (the reaction of the yellow chromophore MTT to a blue formazan product is carried out only by living cells).
It is expected that in the case of various neurodegenerative diseases, chronic calcium overloading occurs because of metabolic malfunctions, which ultimately produces cell death via the activation of various enzyme systems. […]

[3] = tested on: amyloid-beta peptides (β-amyloid 25-35) / nerve cell cultures; assay: Amyloid-beta aggregation assay (peptide added to fresh amyloid-beta solution, effect on nerve cell cultures); assay type: cell-based, chicken; conditions: for AβP reagg. (diff vs C): difference vs control, only one round of testing
Experimental: Beta-Amyloid peptides represent, in aggregated form, a potent neurotoxin whose addition to the nerve cell cultures results in a quick and progressive cell death. Since beta-amyloid peptides constitute an essential role in the pathogenesis of Alzheimer's disease, this model can be considered especially relevant.
This biological test is a process for testing anti-aggregatory substance potential that is specially developed for this project. The newly synthesized peptides are added directly to a fresh solution of amyloid-beta peptides to prevent the formation of neurotoxic aggregates. The effect that aggregates that still develop have on growth and survival of nerve cell cultures is the measurement parameter.

[4] = tested on: cortical neurons that are obtained from chicken embryos; assay: Serum-withdrawal assay (2% assay), neuron viability by MTT; assay type: cell-based
Experimental: This simulates the disruptions in the stimulation of neurons with nerve growth factors that are assumed to be one of the possible causes of neurodegenerative diseases. The effectiveness of the new peptides in preventing cell death was measured.

| Compound | effectiveness across the screening assays (in words) [1] | Active in: (number of assays) [1] | other results |
| --- | --- | --- | --- |
| CSCC[C@H](NC(=O)[C@H](Cc1ccccc1)NC(=O)[C@@H](NC(=O)[C@@H](N)CC(=O)O)C(C)C)C(=O)O [BH#33, DVFM] (H-DVFM-OH; N-terminus and C-terminus assumed) | effective in only one screening assay |  |  |
| CC(C)[C@H](NC(=O)[C@@H](N)CC(=O)O)C(=O)N[C@@H](Cc1ccccc1)C(=O)O [BH#34, DVF] (H-Asp-Val-Phe-OH) |  |  | increase in cell vitality to [2]: about 150%; AβP reagg. (diff vs C) [3]: 19% |
| Ac-SMAKEGV [BH#8, SMAKEGV] |  | 5 of 7 | increase in cell vitality to [2]: about 150%; action in models of pathological processes of neurodegenerative diseases (in words) [1]: excellent action |
| DVFMK [BH#32] | not effective in any assay |  |  |
| DVFMKGL [BH#30, DVFMKGL] | effective in only one screening assay |  |  |
| DVFMKGLSM [BH#28, DVFMKGLSM] |  | 4 of 7 |  |
| DVFMKGLSMA [BH#27, DVFMKGLSMA] |  | 4 of 7 |  |
| DVFMKGLSMAK [BH#26] |  | 2 of 7 | increase of neuronal vitality by ([3]; β-amyloid 25-35, peptide added to fresh amyloid solution): 74% |
| GLS [BH#41] | not effective in any assay |  |  |
| GLSMA [BH#39] | effective in only one screening assay |  |  |
| GLSMAKE [BH#37, GLSMAKE] |  |  | effects over the effects of the control (=100%) [4]: 150% |
| LSMAK [BH#46, LSMAK] |  | 2 of 7 | action in models of pathological processes of neurodegenerative diseases (in words) [1]: excellent action |
| LSMAKE [BH#45, LSMAKE] | effective in only one screening assay |  |  |
| LSMAKEGV [BH#7, LSMAKEGV] |  |  | effects over the effects of the control (=100%) [4]: approximately 450% |
| MDVFMK [BH#20, MDVFMK] | effective in only one screening assay |  |  |
| MDVFMKG [BH#19, MDVFMKG] |  |  | AβP reagg. (diff vs C) [3]: 20% |
| MDVFMKGL [BH#18] | not effective in any assay |  |  |
| MDVFMKGLSM [BH#16, MDVFMKGLSM] |  | 4 of 7 | effects over the effects of the control (=100%) [4]: 150% |
